Assays:
USP1-UAF1 = USP1-UAF1 (Homo sapiens, UniProt O94782); assay: Ubiquitin Rhodamine assay for USP1-UAF1 activity; assay type: biochemical
Procedure: Certain compounds of the disclosure were assessed for USP1-UAF1 activity in a Ubiquitin Rhodamine assay as described in Example 135.

[1] = test system: MDA-MB-436 (BRCA1 mutant) cell line; assay: Viability assay in BRCA1 mutant cell line MDA-MB-436; assay type: cell-based; conditions: Homo sapiens, MDA-MB-436, viability, BRCA1 mutant MDA-MB-436; read-out: MDA-MB-436 rel IC50
Description: (§1) Table 1 also indicates IC50 values in a viability assay for a non-isogenic pair of BRCA1 mutant (column 5—MDA-MB-436) and BRCA1 WT (column 6—HCC1954) cell lines. These values indicate the effect of treatment with compound on cell survival.

[2] = test system: HCC1954 (BRCA1 WT) cell line; assay: Viability assay in BRCA1 WT cell line HCC1954; assay type: cell-based; conditions: Homo sapiens, read-out: HCC 1954 IC50 rel IC50
Description: as §1

monoubiquitinated PCNA = assay: AlphaLISA assay measuring monoubiquitinated PCNA in MDA-MB-436; assay type: cell-based; conditions: Homo sapiens, read-out: Alpha LISA IC50
Description: Table 1 also indicates IC50 values for exemplary compounds in an AlphaLISA assay measuring monoubiquitinated PCNA in a BRCA1 mutant cell line (MDA-MB-436; column 7).

Chain of USP1-UAF1 (O94782 whole entry): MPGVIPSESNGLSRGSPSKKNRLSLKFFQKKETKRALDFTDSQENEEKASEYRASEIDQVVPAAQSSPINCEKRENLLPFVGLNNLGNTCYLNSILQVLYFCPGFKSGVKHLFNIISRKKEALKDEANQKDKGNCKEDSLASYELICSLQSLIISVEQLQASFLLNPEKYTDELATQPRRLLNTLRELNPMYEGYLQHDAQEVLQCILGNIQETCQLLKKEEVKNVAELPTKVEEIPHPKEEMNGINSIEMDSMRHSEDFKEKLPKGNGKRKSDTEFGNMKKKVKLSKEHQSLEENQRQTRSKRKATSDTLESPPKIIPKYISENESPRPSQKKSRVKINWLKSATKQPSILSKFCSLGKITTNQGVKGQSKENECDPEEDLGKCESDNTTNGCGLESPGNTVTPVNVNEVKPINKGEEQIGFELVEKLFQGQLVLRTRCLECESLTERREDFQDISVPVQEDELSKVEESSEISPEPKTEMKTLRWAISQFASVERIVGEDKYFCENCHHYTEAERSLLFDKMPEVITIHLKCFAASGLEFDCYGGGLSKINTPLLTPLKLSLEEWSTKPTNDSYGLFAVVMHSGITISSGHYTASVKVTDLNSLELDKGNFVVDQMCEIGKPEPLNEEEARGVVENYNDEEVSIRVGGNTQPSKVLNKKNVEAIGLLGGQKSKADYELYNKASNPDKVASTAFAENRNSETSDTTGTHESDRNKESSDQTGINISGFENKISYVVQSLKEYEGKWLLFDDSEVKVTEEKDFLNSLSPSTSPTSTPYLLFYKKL
Chain of USP1-UAF1 (Q8TAF3 whole entry partner): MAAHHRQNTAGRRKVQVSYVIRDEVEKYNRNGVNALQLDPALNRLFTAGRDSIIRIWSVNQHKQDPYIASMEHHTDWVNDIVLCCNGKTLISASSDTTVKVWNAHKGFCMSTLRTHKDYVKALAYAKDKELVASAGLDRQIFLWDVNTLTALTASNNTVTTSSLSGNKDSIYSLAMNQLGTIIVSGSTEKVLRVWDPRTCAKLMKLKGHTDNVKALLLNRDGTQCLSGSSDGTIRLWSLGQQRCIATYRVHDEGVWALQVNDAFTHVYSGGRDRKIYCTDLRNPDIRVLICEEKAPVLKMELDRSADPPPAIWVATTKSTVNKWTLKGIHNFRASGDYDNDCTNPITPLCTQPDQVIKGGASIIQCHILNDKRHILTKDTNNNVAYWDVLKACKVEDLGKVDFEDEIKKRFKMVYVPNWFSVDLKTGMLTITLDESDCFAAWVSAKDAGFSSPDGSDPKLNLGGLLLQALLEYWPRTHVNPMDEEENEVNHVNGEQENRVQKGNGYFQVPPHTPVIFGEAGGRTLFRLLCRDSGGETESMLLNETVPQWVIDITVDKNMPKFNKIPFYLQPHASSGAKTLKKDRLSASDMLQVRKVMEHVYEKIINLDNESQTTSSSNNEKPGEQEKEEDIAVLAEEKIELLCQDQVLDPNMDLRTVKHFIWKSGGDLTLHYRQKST

| IC50 (USP1-UAF1) | IC50 [1] | IC50 [2] | IC50 (monoubiquitinated PCNA) | Compound |
| --- | --- | --- | --- | --- |
| 30 to 100 nM | 100 to 250 nM | ≥ 10000 nM | 100 to 250 nM | CCCOc1ncccc1-c1ncc2[nH]cc(Cc3ccc(-c4nc(C(F)(F)F)cn4C)cc3)c2n1 [Compound 34, 7-[[4-[1-methyl-4-(trifluoromethyl)imidazol-2-yl]phenyl]methyl]-2-(2-propoxy-3-pyridyl)-5H-pyrrolo[3,2-d]pyrimidine] |
| 30 to 100 nM | 100 to 250 nM | ≥ 10000 nM | < 100 nM | Cn1cc(C(F)(F)F)nc1-c1ccc(Cc2c[nH]c3cnc(-c4cccnc4OC4CC4)nc23)cc1 [Compound 41, 2-cyclopropoxy-3-[7-([4-[1-methyl-4-(trifluoromethyl)imidazol-2-yl]phenyl]methyl)-5H-pyrrolo[3,2-d]pyrimidin-2-yl]pyridine] |
| 100 to 10000 nM | 250 to 10000 nM | ≥ 10000 nM | 250 to 10000 nM | COc1ncnc(C2CC2)c1-c1ncc2[nH]nc(Cc3ccc(-c4nc(C#N)cn4C)cc3)c2n1 [Compound 45, 2-[4-[[5-(4-cyclopropyl-6-methoxy-pyrimidin-5-yl)-1H-pyrazolo[4,3-d]pyrimidin-3-yl]methyl]phenyl]-1-methyl-imidazole-4-carbonitrile] |
| 30 to 100 nM | 250 to 10000 nM | ≥ 10000 nM | 100 to 250 nM | COc1ncnc(C2CC2)c1-c1ncc2[nH]cc(C3(c4ccc(-c5nc(C(F)(F)F)cn5C)cc4)CC3)c2n1 [Compound 47, 2-(4-cyclopropyl-6-methoxy-pyrimidin-5-yl)-7-[1-[4-[1-methyl-4-(trifluoromethyl)imidazol-2-yl]phenyl]cyclopropyl]-5H-pyrrolo[3,2-d]pyrimidine] |
| < 30 nM | < 100 nM | ≥ 10000 nM | < 100 nM | CC(C)c1ccccc1-c1ncc2[nH]cc(C(C)(O)c3ccc(-c4nc(C(F)(F)F)cn4C)cc3)c2n1 (stereo not shown) [Compound 48, 1-[2-(2-isopropylphenyl)-5H-pyrrolo[3,2-d]pyrimidin-7-yl]-1-[4-[1-methyl-4-(trifluoromethyl)imidazol-2-yl]phenyl]ethanol] |
| < 30 nM | 250 to 10000 nM | ≥ 10000 nM | 100 to 250 nM | CC(C)c1ccccc1-c1ncc2c(n1)c(Cc1ccc(-c3nc(C(F)(F)F)cn3C)cc1)cn2CCO [Compound 57, 2-[2-(2-isopropylphenyl)-7-[[4-[1-methyl-4-(trifluoromethyl)imidazol-2-yl]phenyl]methyl]pyrrolo[3,2-d]pyrimidin-5-yl]ethanol] |
| < 30 nM | < 100 nM | ≥ 10000 nM | < 100 nM | Cn1cc(C(F)(F)F)nc1-c1ccc(Cc2c[nH]c3cnc(-c4cccnc4C4CC4)nc23)cc1 [Compound 60, 2-(2-cyclopropyl-3-pyridyl)-7-[[4-[1-methyl-4-(trifluoromethyl)imidazol-2-yl]phenyl]methyl]-5H-pyrrolo[3,2-d]pyrimidine] |
| < 30 nM | < 100 nM | ≥ 10000 nM | < 100 nM | COc1ncnc(C2CC2)c1-c1ncc2[nH]cc(Cc3ccc(-c4nc(C(F)(F)F)cn4C)cc3)c2n1 [Compound 65, 2-(4-cyclopropyl-6-methoxy-pyrimidin-5-yl)-7-[[4-[1-methyl-4-(trifluoromethyl)imidazol-2-yl]phenyl]methyl]-5H-pyrrolo[3,2-d]pyrimidine] |
| 30 to 100 nM | 100 to 250 nM | 250 to 10000 nM | < 100 nM | Cn1cc(C(F)(F)F)nc1-c1ccc(Cc2c[nH]c3cnc(-c4cccnc4C4CC4)cc23)cc1 [Compound 66, 2-cyclopropyl-3-[3-([4-[1-methyl-4-(trifluoromethyl)imidazol-2-yl]phenyl]methyl)-1H-pyrrolo[2,3-c]pyridin-5-yl]pyridine] |
| 100 to 10000 nM | 250 to 10000 nM | ≥ 10000 nM | 250 to 10000 nM | Cn1cc(C(F)(F)F)nc1-c1ccc(Cc2c[nH]c3cnc(-c4cccnc4N4CCC4)nc23)cc1 [Compound 67, 2-[2-(azetidin-1-yl)-3-pyridyl]-7-[[4-[1-methyl-4-(trifluoromethyl)imidazol-2-yl]phenyl]methyl]-5H-pyrrolo[3,2-d]pyrimidine] |
| 100 to 10000 nM | 250 to 10000 nM | ≥ 10000 nM | 250 to 10000 nM | COc1ncnc(C2CC2)c1-c1ncc2[nH]cc(Oc3ccc(-c4nc(C(F)(F)F)cn4C)cc3)c2n1 [Compound 69, 2-(4-cyclopropyl-6-methoxy-pyrimidin-5-yl)-7-[4-[1-methyl-4-(trifluoromethyl)imidazol-2-yl]phenoxy]-5H-pyrrolo[3,2-d]pyrimidine] |
| 100 to 10000 nM | 250 to 10000 nM | 250 to 10000 nM | 250 to 10000 nM | CC(C)c1ccccc1-c1cc2c(CN3CCN(c4nc(C(F)(F)F)cn4C)CC3)c[nH]c2cn1 [Compound 71] |
| 100 to 10000 nM | 250 to 10000 nM | 250 to 10000 nM | 100 to 250 nM | COC(c1ccc(-c2nc(C(F)(F)F)cn2C)cc1)c1c[nH]c2cnc(-c3ccccc3C(C)C)nc12 (stereo not shown) [Compound 73, 2-(2-isopropylphenyl)-7-[methoxy-[4-[1-methyl-4-(trifluoromethyl)imidazol-2-yl]phenyl]methyl]-5H-pyrrolo[3,2-d]pyrimidine] |
| < 30 nM | < 100 nM | 250 to 10000 nM | < 100 nM | Cn1cc(C(F)(F)F)nc1-c1ccc(Cc2c[nH]c3cnc(-c4cccnc4OCC(F)(F)F)nc23)cc1 [Compound 78] |
| < 30 nM | < 100 nM | 250 to 10000 nM | < 100 nM | COc1ncnc(C2CC2)c1-c1ncc2[nH]cc(Cc3ccc(-c4nc(C(F)(F)F)cn4C4CC4)cc3)c2n1 [Compound 81, 2-(4-cyclopropyl-6-methoxy-pyrimidin-5-yl)-7-[[4-[1-cyclopropyl-4-(trifluoromethyl)imidazol-2-yl]phenyl]methyl]-5H-pyrrolo[3,2-d]pyrimidine] |
| < 30 nM | < 100 nM | ≥ 10000 nM | < 100 nM | COCCn1cc(Cc2ccc(-c3nc(C(F)(F)F)cn3C)cc2)c2nc(-c3ccccc3C(C)C)ncc21 [Compound 83, 2-(2-isopropylphenyl)-5-(2-methoxyethyl)-7-[[4-[1-methyl-4-(trifluoromethyl)imidazol-2-yl]phenyl]methyl]pyrrolo[3,2-d]pyrimidine] |
| 100 to 10000 nM | 250 to 10000 nM | ≥ 10000 nM | 250 to 10000 nM | Cn1cc(C(F)(F)F)nc1-c1ccc(Sc2c[nH]c3cnc(-c4ccccc4C(F)(F)F)nc23)cc1 [Compound 84, 7-[4-[1-methyl-4-(trifluoromethyl)imidazol-2-yl]phenyl]sulfanyl-2-[2-(trifluoromethyl)phenyl]-5H-pyrrolo[3,2-d]pyrimidine] |
| < 30 nM | < 100 nM | ≥ 10000 nM | < 100 nM | COc1ncnc(C2(F)CC2)c1-c1ncc2[nH]cc(Cc3ccc(-c4nc(C(F)(F)F)cn4C)cc3)c2n1 [Compound 87] |
| < 30 nM | < 100 nM | ≥ 10000 nM | < 100 nM | COc1ncnc(C2CC2)c1-c1ncc2[nH]cc(Cc3ccc(-n4nc(C(F)(F)F)cc4C)c(F)c3)c2n1 [Compound 88, 2-(4-cyclopropyl-6-methoxy-pyrimidin-5-yl)-7-[[3-fluoro-4-[5-methyl-3-(trifluoromethyl)pyrazol-1-yl]phenyl]methyl]-5H-pyrrolo[3,2-d]pyrimidine] |

From patent US20240182481A1 (Tango Therapeutics, Inc., priority 2021, published 2024)
